Measured values from patent publication US7871797B2, “DNA encoding a bacterial protease for degrading gelatin and collagen” (Jellice Co., Ltd., priority 2003, dated 2011).
Like-named read-outs stand apart in the source and are kept apart here. Starred links: 1 amine or outer side, 2 acyl side, 3 side chain; linkers in the order of their positions; H or OH if unused. Non-standard residues stand in square brackets, D forms with d. No end group written: not given here. *: point of attachment. K(DNP) = O=C([C@H](CCCCNc1ccc([N+](=O)[O-])cc1[N+](=O)[O-])N[*:1])[*:2]; Dnp = O=[N+]([O-])c1ccc(*)c([N+](=O)[O-])c1; Benzoyl(2-NHMe) = CNc1ccccc1C(=O)*

Assays:
[1] = tested on: enzyme (protease) of the present invention; type: biochemical, Aureobacterium sp. MIM-CG-9535-I
Description: Reagents in the form of o-phenanthroline, EDTA, EGTA, L-cysteine, 2-mercaptoethanol, N-ethylmaleimide, antipain, leupepsin, E-64, phosphoramidon, trypsin inhibitor, chymostatin, TCPK, PMSF, and iodoacetamide were employed as inhibitors.
Each of the reagents was mixed with the synthetic substrate after which the enzyme was added. The degradation reaction was conducted for 30 min at 37° C. and the enzymatic activity was measured. Adopting the case where no inhibitor was added as 100 percent, the relative residual enzymatic activity was calculated.

[2] = tested on: enzyme (protease) of the present invention; assay: Cutting activity (specific protease activity) on fluorescence-labeled synthetic peptides; type: biochemical, Aureobacterium sp. MIM-CG-9535-I; conditions: for Present or Absent of Specific degradation activity: fluorescence-labeled peptides with varied peptide chain; for Protease cutting activity (degradation of synthetic substrate), Enzyme of the present invention: 100 microgram labeled peptide, 1 microgram protease, 10 min at 37° C. in the dark
Source text: Fluorescence-labeled peptides having the amino acid sequences denoted by (1) to (3) below are synthesized by the usual methods. Specifically, a fluorescent substance is attached as label on one side of the cutting site of a peptide having one of the amino acid sequences listed below, and a light-extinguishing substance is attached on the other side. Only when the labeled peptide has been cleaved is florescence detected. No fluorescence is detected even when employed as substrate for an enzyme not having cutting activity on the amino acid sequences given below. The substances used to label the peptide are not specifically limited other than that they be fluorescent and light-extinguishing substances. For example, N-methylanthranic acid can be employed as the fluorescent substance, and a dinitrophenyl group can be employed as the light-extinguishing substance.
To determine specific protease activity in the present invention, a fluorescence-labeled synthetic peptide, obtained by labeling a peptide having one of the amino acid sequences denoted by (1) to (3) above with N-methylanthranic acid on one end and labeling the other end thereof with a dinitrophenyl group, is employed as substrate and incubated with a prescribed quantity of enzyme for a prescribed period in the dark. Subsequently, the product is separated by reverse-phase chromatography and the fluorescent intensity of the separated product is measured to determine cutting activity.
Nma/Dnp florescence-labeled peptides (excitation wavelength 340 nm, fluorescence wavelength 440 nm) having the amino acid sequences of (1) to (3) below labeled on one end with N-methylanthranic acid and on the other end with a dinitrophenyl group were synthesized with a peptide synthesizer by the usual method.
Employing as substrate one of the fluorescence-labeled synthetic peptides obtained, cutting activity was measured under the following conditions.
(§1) A 100 microgram quantity of fluorescence-labeled synthetic peptide was adjusted to 0.2 mg/mL with 10 mM Tris buffer solution, 1 microgram of the above protease of the present invention was added, and the mixture was incubated for 10 min at 37° C. in the dark. The enzyme reaction solution obtained was subjected to reverse-phase HPLC using TSKgel® ODS-80Ts (silica-based, reverse phase chromatography resin; Tosoh Corp.) from 0.1 percent TFA to 80 percent acetonitrile-0.1 percent TFA at a flow rate of 1 mL/min and a gradient of 40 min to separate the degraded peptides. Employing A215 and a fluorescence spectrometer for high-performance liquid chromatography made by Shimatsu Corp., fluorescent intensity was measured at an excitation wavelength of 340 nm and a fluorescence wavelength of 440 nm.
The structure of the peptide chain was varied in the amino acid sequence of (1) above, fluorescence-labeled synthetic peptides were synthesized in the same manner as above, and cutting activity was measured in the same manner as above to verify the amino acids required for the above specific degradation activity.

[3] = tested on: protease described in Japanese Patent Application Publication No. 2000-102381; conditions: protease of JP 2000-102381; cited from earlier work
[4] = tested on: enzyme described in Japanese Patent Application Publication No. 2000-102381; assay: Cutting activity on fluorescence-labeled synthetic peptides, comparison enzyme; type: biochemical, Aureobacterium; conditions: identical conditions: 10 min at 37° C. in the dark
Description: as §1
For comparison, the cutting activity of the enzyme described in the above-cited patent application publication (Japanese Patent Application Publication No. 2000-102381) was measured under identical conditions.

[5] = tested on: protease described in Japanese Patent Application Publication No. 2000-102381; conditions: protease of JP 2000-102381; cited from earlier work; remark: listed apart in the source
[6] = Temperature stability of the enzyme; type: physicochemical; conditions: then 30 min at 37° C. with substrate
Description: i) Temperature Stability • The enzyme was left standing for one hour at various temperatures of from 0 to 60° C. and subsequently reacted with a synthetic substrate for 30 min at 37° C. Enzyme activity was then measured.

[7] = inhibitor 0.05 mM, 30 min at 37° C., no inhibitor = 100 percent
[8] = inhibitor 20 mM, 30 min at 37° C., no inhibitor = 100 percent

CC(C)C[C@H](NC(=O)[C@@H](NC(=O)N[C@@H](Cc1ccccc1)C(=O)O)[C@@H]1CCN=C(N)N1)C(=O)N[C@H](C=O)Cc1ccccc1 [Chymostatin, chymostatin]
Residual activity (%) [1, 7]: 85%

Pro-Ala-Gly-Phe-Ala-Gly-Pro (PAGFAGP; also: fluorescent label, type and site not given here) [PAG FAGP, fluorescence-labeled synthetic peptide, single letter code]
Present or Absent of Specific degradation activity [2]: Present

CC(C)C[C@H](NC(=O)[C@H]1O[C@@H]1C(=O)O)C(=O)NCCCCN=C(N)N [E-64]
Residual activity (%) [1, 7]: 95%

NC(=O)CI [Iodoacetamide, iodoacetamide]
Residual activity (%) [1, 8]: 77%
Enzyme inhibition [3]: not

CC(=O)N[C@@H](CC(C)C)C(=O)N[C@@H](CC(C)C)C(=O)N[C@H](C=O)CCCNC(=N)N [Leupepsin, leupepsin]
Residual activity (%) [1, 7]: 92%

Nma-Gly-Pro-Ala-Gly-Phe-Ala-Gly-Pro-Lys-(DNP)r-NH2 ({Benzoyl(2-NHMe)}-GPAGFAGP-{K(DNP)-dR-NH2}; SMILES CNc1ccccc1C(=O)NCC(=O)N1CCC[C@H]1C(=O)N[C@@H](C)C(=O)NCC(=O)N[C@@H](Cc1ccccc1)C(=O)N[C@@H](C)C(=O)NCC(=O)N1CCC[C@H]1C(=O)N[C@@H](CCCCNc1ccc([N+](=O)[O-])cc1[N+](=O)[O-])C(=O)N[C@H](CCCNC(=N)N)C(N)=O) [Gly-Pro-Ala-Gly-↓-Phe-Ala-Gly-Pro, fluorescence-labeled synthetic substrate]
Protease cutting activity (degradation of synthetic substrate), Enzyme of the present invention [2]: (◯) Degrades
Present or Absent of Specific degradation activity [2]: Present
Protease cutting activity (degradation of synthetic substrate), Enzyme of patent application publication [4]: (X) Does not degrade

casein
Degradation activity [5]: exhibits degradation activity

O=C(O)CN(CCOCCOCCN(CC(=O)O)CC(=O)O)CC(=O)O [EGTA]
Residual activity (%) ([1]; inhibitor 10 mM, 30 min at 37° C., no inhibitor = 100 percent): 68%

Nma-Thr-Gln-Ser-Leu-Val-Thr-Pro-Lys-(DNP)r-NH2 [Gln-Thr-Gln-Ser-↓-Leu-Val-Thr-Pro]
Protease cutting activity (degradation of synthetic substrate), Enzyme of the present invention [2]: (◯) Degrades
Protease cutting activity (degradation of synthetic substrate), Enzyme of patent application publication [4]: (X) Does not degrade

GPAG FAG: fluorescence-labeled synthetic peptide, single letter code (GPAGFAG; also: fluorescence label, site not given here)
Present or Absent of Specific degradation activity [2]: Absent

G FAGP: fluorescence-labeled synthetic peptide, single letter code (GFAGP; also: fluorescence label, site not given here)
Present or Absent of Specific degradation activity [2]: Absent

O=C(O)CN(CCN(CC(=O)O)CC(=O)O)CC(=O)O [EDTA, ethylenediamine tetraacetic acid]
Residual activity (%) [1]: 93%
Enzyme inhibition [3]: not

c1cnc2c(c1)ccc1cccnc12 [o-Phenanthroline, o-phenanthroline]
Residual activity (%) ([1]; inhibitor 2 mM, 30 min at 37° C., no inhibitor = 100 percent): 0%
Enzyme inhibition [3]: inhibited

Nma-Gly-Pro-Gln-Gly-Phe-Gln-Gly-Pro-Lys-(DNP)r-NH2 ({Benzoyl(2-NHMe)}-GPQGFQGP-{K(DNP)-dR-NH2}; SMILES CNc1ccccc1C(=O)NCC(=O)N1CCC[C@H]1C(=O)N[C@@H](CCC(N)=O)C(=O)NCC(=O)N[C@@H](Cc1ccccc1)C(=O)N[C@@H](CCC(N)=O)C(=O)NCC(=O)N1CCC[C@H]1C(=O)N[C@@H](CCCCNc1ccc([N+](=O)[O-])cc1[N+](=O)[O-])C(=O)N[C@H](CCCNC(=N)N)C(N)=O) [Gly-Pro-Gln-Gly-↓-Phe-Gln-Gly-Pro, fluorescence-labeled synthetic substrate]
Protease cutting activity (degradation of synthetic substrate), Enzyme of the present invention [2]: (◯) Degrades
Protease cutting activity (degradation of synthetic substrate), Enzyme of patent application publication [4]: (X) Does not degrade

Cc1ccc(S(=O)(=O)N[C@@H](Cc2ccccc2)C(=O)CCl)cc1 [TCPK]
Residual activity (%) ([1]; inhibitor 0.1 mM, 30 min at 37° C., no inhibitor = 100 percent): 95%

AG FAGP: fluorescence-labeled synthetic peptide, single letter code (AGFAGP; also: fluorescence label, site not given here)
Present or Absent of Specific degradation activity [2]: Absent

CCN1C(=O)C=CC1=O [N-Ethylmaleimide, N-ethylmaleimide]
Residual activity (%) [1, 8]: 79%
Enzyme inhibition [3]: not

CC(C)C[C@H](NP(=O)(O)O[C@@H]1O[C@@H](C)[C@H](O)[C@@H](O)[C@H]1O)C(=O)N[C@@H](Cc1c[nH]c2ccccc12)C(=O)O [Phosphoramidon, phosphoramidon]
Residual activity (%) [1, 7]: 91%

N[C@@H](CS)C(=O)O [L-Cys, L-cysteine]
Residual activity (%) [1, 8]: 0%
Enzyme inhibition [3]: inhibited

GPAG F: fluorescence-labeled synthetic peptide, single letter code (GPAGF; also: fluorescence label, site not given here)
Present or Absent of Specific degradation activity [2]: Absent

GPAG FA: fluorescence-labeled synthetic peptide, single letter code (GPAGFA; also: fluorescence label, site not given here)
Present or Absent of Specific degradation activity [2]: Absent

DNP-Pro-Gln-Gly-Ile-Ala-Gly-Gln-D-Arg (Dnp-PQGIAGQ[dR]) [synthetic collagenase substrate]
Degradation activity [5]: only slight degradation activity

O=S(=O)(F)Cc1ccccc1 [PMSF, phenylmethanesulfonyl fluoride]
Residual activity (%) [1, 8]: 84%
Enzyme inhibition [3]: not

Pro-Gln-Gly-Ile-Ala-Gly-Gln (PQGIAGQ; also: fluorescence label, site not given here) [Pro-Gln-Gly-↓-Ile-Ala-Gly-Gln, fluorescence-labeled synthetic substrate degraded by the enzyme of the earlier publication]
Protease cutting activity (degradation of synthetic substrate), Enzyme of the present invention [2]: (X) Does not degrade
Protease cutting activity (degradation of synthetic substrate), Enzyme of patent application publication [4]: (◯) Degrades

OCCS [2-ME, 2-mercaptoethanol]
Residual activity (%) [1, 8]: 73%

DNP-Gln-Gly-Ile-Ala-Gly-Gln-D-Arg (Dnp-QGIAGQ[dR]) [synthetic substrate]
Degradation activity [5]: no degradation activity

B1: protease of the present invention: protease of molecular weight 21,000±1,000 from Aureobacterium sp. MIM-CG-9535-I cutting specific Gly-Phe and Ser-Leu sites (protein, listed as Aureobacterium sp.)
chain: LIVNTVNSIDDKWSDAQASALTYCVSTAFGARHADVVSAMESGAALWEAASSKIDFIYDSSADANCTTRNNAVLFSVEPVQTTQYIARAFFPSTAPRLQNVLIDDSIWTPGSSWTPTNVLGHELGHVLGFRHEHTRPEAGTCFEDDNWRPLTPYDSSSIMHYPQCNGSSADLSMTSVDTDGVVALYGN
Temperature stability: residual activity ([6]; left standing one hour at 30° C.): about half
Temperature stability ([6]; left standing one hour at 40° C. and above): nearly deactivated
